This note sets out measurements from EP0502110B1, “(HETERO) 4-ARYLMETHOXY PHENYL DIAZOLE DERIVATIVES, METHOD FOR PREPARING SAME, AND THEIR THERAPEUTICAL APPLICATIONS” (SYNTHELABO, priority 1989, dated 1991).

What is called Ki is the equilibrium dissociation constant of an inhibitor or competing ligand from its target. Read a low Ki as tighter binding.

One experiment deals with T1, MAO-B (Rattus norvegicus, UniProt P19643).
T1 construct: en utilisant comme source d'enzyme une suspension mitochondriale du cerveau de rat; from tissue; host or cells: rat brain mitochondrial suspension
T1 sequence (P19643 1-520): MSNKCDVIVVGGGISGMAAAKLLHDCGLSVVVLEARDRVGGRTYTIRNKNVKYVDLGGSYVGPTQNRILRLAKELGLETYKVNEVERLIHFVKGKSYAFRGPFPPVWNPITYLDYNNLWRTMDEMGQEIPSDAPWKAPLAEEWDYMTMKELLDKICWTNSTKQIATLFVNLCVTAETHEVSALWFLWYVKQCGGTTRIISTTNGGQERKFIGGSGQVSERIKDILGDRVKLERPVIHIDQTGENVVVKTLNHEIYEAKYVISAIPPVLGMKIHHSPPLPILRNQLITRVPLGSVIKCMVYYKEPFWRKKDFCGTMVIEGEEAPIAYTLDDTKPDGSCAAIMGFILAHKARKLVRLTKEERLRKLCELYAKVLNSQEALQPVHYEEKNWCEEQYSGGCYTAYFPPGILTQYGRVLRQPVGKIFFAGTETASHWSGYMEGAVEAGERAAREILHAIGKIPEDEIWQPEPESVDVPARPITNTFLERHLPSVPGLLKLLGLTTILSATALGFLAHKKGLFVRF
In words: In vitro MAO activity assay, rat brain mitochondrial suspension, phenethylamine (PEA) as substrate. In kind it is biochemical. To be noted: 20 min preincubation, reaction time 10 min. The method, then:
(§1) L'activité inhibitrice de la monoamine oxydase de ces composés a été mise en évidence par des mesures in vitro de la MAO.
(§2) Le dosage de l'activité de la MAO a été effectué en utilisant comme source d'enzyme une suspension mitochondriale du cerveau de rat. Le dosage standard consiste à préincuber l'enzyme pendant 20 minutes en absence, puis en présence des inhibiteurs. Les activités sont déterminées en utilisant la sérotonine (5 HT) et la phénéthylamine (PEA) comme substrats de la MAO-A et de la MAO-B, les temps de réaction étant de 40 minutes avec la 5 HT et de 10 minutes avec la PEA. Le mode opératoire mis en oeuvre est celui du protocole de P.C. Baker : Dev. Biol. 14, 267, 1966.
(§3) Les activités d'un certain nombre de composés selon l'invention vis-à-vis de la MAO-B et de la MAO-A sont données par leurs constantes d'inhibition Ki (MAO-B) et Ki(MAO-A) et sont rassemblées dans le tableau ci-après. TABLEAU

The next experiment deals with T2, MAO-A (Rattus norvegicus, UniProt P21396).
T2 construct: en utilisant comme source d'enzyme une suspension mitochondriale du cerveau de rat; from tissue; host or cells: rat brain mitochondrial suspension
T2 sequence (P21396 1-526): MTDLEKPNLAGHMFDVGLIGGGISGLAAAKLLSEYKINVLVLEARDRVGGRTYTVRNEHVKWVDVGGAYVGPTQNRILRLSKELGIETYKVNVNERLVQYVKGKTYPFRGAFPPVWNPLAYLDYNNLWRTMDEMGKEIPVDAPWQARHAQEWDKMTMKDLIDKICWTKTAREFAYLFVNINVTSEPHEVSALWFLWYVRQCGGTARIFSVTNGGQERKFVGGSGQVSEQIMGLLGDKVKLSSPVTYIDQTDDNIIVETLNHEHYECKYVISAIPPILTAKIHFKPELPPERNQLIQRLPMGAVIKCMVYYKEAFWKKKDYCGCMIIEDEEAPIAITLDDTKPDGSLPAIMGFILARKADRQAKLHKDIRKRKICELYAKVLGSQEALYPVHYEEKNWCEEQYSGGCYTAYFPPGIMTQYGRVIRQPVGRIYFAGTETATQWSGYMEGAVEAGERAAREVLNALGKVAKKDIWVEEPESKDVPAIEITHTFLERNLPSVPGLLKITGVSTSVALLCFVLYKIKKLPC
The experiment is described as follows: In vitro MAO activity assay, rat brain mitochondrial suspension, serotonin (5 HT) as substrate. It counts as biochemical. To be noted: 20 min preincubation, substrate 5 HT, reaction time 40 min. The protocol:
as §1, §2, §3

Compound `COCCn1nc(-c2ccc(OCc3ccc(Cl)cc3)cc2)oc1=O` [MD 230306, [(chloro-4 benzyloxy)-4 phényl]-5 méthoxyéthyl-3 3H oxadiazole-1,3,4 one-2] showed a Ki at MAO-B of 5 nM.
The same measure, in the same setting: in the case of `COCCn1nnc(-c2ccc(OCc3cccc(Cl)c3)cc2)n1` [MD 230324, [(chloro-3 benzyloxy)-4 phényl]-5 méthoxyéthyl-2 2H tétrazole] it was 35 nM.
Consider `COCCn1nnc(-c2ccc(OCc3ccccc3)cc2)n1` [MD 230300, (benzyloxy-4 phényl)-5 méthoxyéthyl-2 2H tétrazole], for which, on MAO-A, the “Ki(MAO-A)” value is “inactif”. The Ki on MAO-B turned out to be 15.6 nM.
As to `COCCn1nnc(-c2ccc(OCc3ccc(Cl)cc3)cc2)n1` [MD 230305, [(chloro-4 benzyloxy)-4 phényl]-5 méthoxyéthyl-2 2H-tétrazole], on MAO-B, affinity was put at a Ki of 184 nM.
